Biological target: T1, Lipoxygenase in Kaninchen-PMN-Leukozyten (Oryctolagus cuniculus, UniProt G1SNX0)
T1 construct: Die polymorphkernigen Leukozyten des Menschen und des Kaninchens metabolisieren die Arachidonsäure; endogenous in cells; host or cells: rabbit polymorphonuclear (PMN) leukocytes
T1 sequence (G1SNX0 1-674): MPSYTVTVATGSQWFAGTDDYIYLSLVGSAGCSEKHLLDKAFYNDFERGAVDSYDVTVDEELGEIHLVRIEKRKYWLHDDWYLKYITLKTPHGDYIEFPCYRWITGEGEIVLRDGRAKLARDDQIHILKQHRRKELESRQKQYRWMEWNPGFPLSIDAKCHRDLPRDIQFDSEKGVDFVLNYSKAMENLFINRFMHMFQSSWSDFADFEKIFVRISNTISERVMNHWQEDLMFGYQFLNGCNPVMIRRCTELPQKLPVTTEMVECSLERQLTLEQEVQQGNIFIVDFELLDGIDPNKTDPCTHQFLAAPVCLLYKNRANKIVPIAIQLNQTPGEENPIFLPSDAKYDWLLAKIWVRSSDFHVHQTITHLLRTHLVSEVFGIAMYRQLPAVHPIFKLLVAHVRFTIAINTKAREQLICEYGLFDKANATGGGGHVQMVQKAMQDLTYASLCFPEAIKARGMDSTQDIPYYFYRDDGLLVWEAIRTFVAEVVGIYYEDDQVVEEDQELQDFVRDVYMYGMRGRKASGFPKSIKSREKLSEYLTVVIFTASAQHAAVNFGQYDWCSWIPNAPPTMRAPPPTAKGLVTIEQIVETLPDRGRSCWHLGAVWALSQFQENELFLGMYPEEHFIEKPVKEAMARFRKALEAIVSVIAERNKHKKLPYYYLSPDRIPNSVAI
Assay: Inhibition of lipoxygenase (release of 5-HETE and leukotriene B4) in rabbit PMN leukocytes
Assay type: cell-based
Text: Analog den vorstehenden Ausführungen lassen sich die lipoxygenasehemmenden Eigenschaften der erfindungsgemäßen Verbindungen auch an Leukozyten nachweisen.
Die polymorphkernigen Leukozyten des Menschen und des Kaninchens metabolisieren die Arachidonsäure zu 5-Hydroxy-5,8,11,14-eikosatetraensäure (5-HETE) und Leukotrien B4 (5S, 12R-Dihydroxy-6 cis, 8,10-trans-14 ciseikosatetraensäure). Die Hemmung der Freisetzung von 5-HETE und Leukotrien B4 aus den Leukozyten stellt ein Maß für den lipoxygenasehemmenden Effekt der erfindungsgemäßen Verbindungen dar. (Vergl. Tab. 1) Der Test mit den Humanleukozyten wurde nach Borgeat und Samuelsson (j. Biol. Chem. 254; 2643, 1979 und Proc. Natl. Acad. Sci. USA, 76, 2148 1979), mit Kaninchenleukozyten nach Walker und .Parish (Inter. Archs. Allergy appl. Immun. 66, 83, 1981) durchgeführt.

Row | Minimale Konzentration für die Hemmung der Lipoxygenase in Kaninchen-PMN-Leukozyten | Structure (SMILES)
1 | 5x10^-7 - 10^-6 g/ml | CC1=C(C(=O)OCCC#N)Sc2ccccc2N1 [Beispiel 1, 3-Methyl-4H-1,4-benzothiazin-2-carbonsäure-(2-cyanethyl)-ester]
2 | 5x10^-7 - 10^-6 g/ml | COC(=O)C1=C(C)Nc2ccccc2S1 [Beispiel 2]
3 | 5x10^-7 - 10^-6 g/ml | CCOC(=O)C1=C(CC)Nc2ccccc2S1 [Beispiel 4]
4 | 5x10^-7 - 10^-6 g/ml | CC1=C(C(=O)OC2CCCCC2)Sc2ccccc2N1 [Beispiel 5]
5 | 5x10^-7 - 10^-6 g/ml | CSCCOC(=O)C1=C(C)Nc2ccccc2S1 [Beispiel 8]
6 | 10^-6 g/ml | CCCCOC(=O)C1=C(C)Nc2ccccc2S1 [Beispiel 9]
7 | 10^-6 g/ml | CC(=O)C1=C(C)Nc2ccccc2S1 [Beispiel 11]
8 | 10^-6 g/ml | CC1=C(C(=O)OCCc2ccccc2)Sc2ccccc2N1 [Beispiel 12]
9 | 5x10^-7 - 10^-6 g/ml | CC1=C(C(=O)OCc2ccccc2)Sc2ccccc2N1 [Beispiel 13]
10 | 10^-6 g/ml | COc1ccc2c(c1)SC(C(=O)OCCC#N)=C(C)N2 [Beispiel 28]
11 | 10^-6 g/ml | CSCCOC(=O)C1=C(C)Nc2ccc(C)cc2S1 [Beispiel 29]
12 | 10^-6 g/ml | CCOC(=O)C1=CNc2ccc(OC)cc2S1 [Beispiel 32]
13 | 5e-06 g/mL | CCN1C=C(C(=O)O)Sc2cc([N+](=O)[O-])ccc21 [Beispiel 37]
14 | 5e-06 g/mL | CCN1C=C(C(=O)OC)Sc2cc([N+](=O)[O-])ccc21 [Beispiel 40]

From patent publication EP0100527A1, “4H-1,4-benzothiazines for use as medicaments” (BAYER AG, priority 1982, dated 1984)
